Experimental data as given in the NIST ThermoML archive (doi:10.1021/je0603325).
Numbers after ± are expanded uncertainties.

Assay: xn = mol fraction of the nth substance listed
Conditions: 101 kPa, Liquid

BrCCBr [1,2-dibromoethane] + CCCCCCC
Conditions	mass density [kg/m3]	speed of sound [m/s]
292.6 K, x1 = 0.6005	–	996.77 ± 2.3
292.62 K, x1 = 0.2	–	1079.5 ± 2.4
292.64 K, x1 = 0.1024	–	1112.1 ± 2.4
292.64 K, x1 = 0.2986	–	1050.8 ± 2.3
292.66 K, x1 = 0.6997	–	989.87 ± 2.3
292.68 K, x1 = 0.4002	–	1027.2 ± 2.3
292.68 K, x1 = 0.8004	–	989.25 ± 2.3
292.7 K, x1 = 0.4996	–	1009.4 ± 2.3
292.7 K, x1 = 0.9061	–	995.84 ± 2.4
292.84 K, x1 = 1	–	1007.5 ± 2.4
293.15 K, x1 = 0.1018	776.01 ± 0.52	–
293.15 K, x1 = 0.2052	878.46 ± 0.43	–
293.15 K, x1 = 0.2931	973.9 ± 0.43	–
293.15 K, x1 = 0.3754	1070.54 ± 0.56	–
293.15 K, x1 = 0.3919	1091.09 ± 0.6	–
293.15 K, x1 = 0.5009	1234.71 ± 0.95	–
293.15 K, x1 = 0.5993	1379.31 ± 1.1	–
293.15 K, x1 = 0.6916	1530.51 ± 1.4	–
293.15 K, x1 = 0.7886	1707.97 ± 1.7	–
293.15 K, x1 = 0.8919	1922 ± 2.2	–
293.15 K, x1 = 1	2178.77 ± 2.9	–
298.15 K, x1 = 0.1018	771.16 ± 0.51	–
298.15 K, x1 = 0.2052	872.98 ± 0.42	–
298.15 K, x1 = 0.2931	968 ± 0.41	–
298.15 K, x1 = 0.3754	1064.3 ± 0.56	–
298.15 K, x1 = 0.3919	1084.74 ± 0.59	–
298.15 K, x1 = 0.5009	1227.73 ± 0.92	–
298.15 K, x1 = 0.5993	1372.04 ± 1.1	–
298.15 K, x1 = 0.6916	1522.49 ± 1.3	–
298.15 K, x1 = 0.7886	1699.34 ± 1.7	–
298.15 K, x1 = 0.8919	1912.55 ± 2.2	–
298.15 K, x1 = 1	2168.41 ± 2.9	–
298.56 K, x1 = 0.1024	–	1088 ± 2.4
298.56 K, x1 = 0.9061	–	980 ± 2.3
298.58 K, x1 = 0.2	–	1056.5 ± 2.3
298.59 K, x1 = 0.4996	–	990.17 ± 2.3
298.59 K, x1 = 0.6005	–	978.03 ± 2.3
298.6 K, x1 = 0.4002	–	1006.7 ± 2.3
298.6 K, x1 = 0.6997	–	972.29 ± 2.3
298.68 K, x1 = 0.8004	–	972.17 ± 2.3
298.69 K, x1 = 0.2986	–	1028.6 ± 2.3
299.17 K, x1 = 1	–	991.14 ± 2.4
303.15 K, x1 = 0.1018	766.4 ± 0.52	–
303.15 K, x1 = 0.2052	867.72 ± 0.42	–
303.15 K, x1 = 0.2931	962.23 ± 0.41	–
303.15 K, x1 = 0.3754	1058 ± 0.55	–
303.15 K, x1 = 0.3919	1078.36 ± 0.59	–
303.15 K, x1 = 0.5009	1220.93 ± 0.91	–
303.15 K, x1 = 0.5993	1364.69 ± 1.1	–
303.15 K, x1 = 0.6916	1514.35 ± 1.3	–
303.15 K, x1 = 0.7886	1690.56 ± 1.6	–
303.15 K, x1 = 0.8919	1903.13 ± 2.2	–
303.15 K, x1 = 1	2157.94 ± 2.9	–
303.37 K, x1 = 1	–	980.18 ± 2.4
303.54 K, x1 = 0.4002	–	989.74 ± 2.2
303.57 K, x1 = 0.9061	–	966.53 ± 2.3
303.59 K, x1 = 0.1024	–	1067.7 ± 2.3
303.61 K, x1 = 0.2	–	1037.2 ± 2.3
303.61 K, x1 = 0.6997	–	957.6 ± 2.3
303.62 K, x1 = 0.6005	–	962.51 ± 2.2
303.65 K, x1 = 0.2986	–	1010.6 ± 2.3
303.66 K, x1 = 0.4996	–	973.72 ± 2.2
303.78 K, x1 = 0.8004	–	957.87 ± 2.3
308.15 K, x1 = 0.1018	761.38 ± 0.52	–
308.15 K, x1 = 0.2052	862.14 ± 0.43	–
308.15 K, x1 = 0.2931	956.31 ± 0.42	–
308.15 K, x1 = 0.3754	1051.8 ± 0.54	–
308.15 K, x1 = 0.3919	1071.93 ± 0.58	–
308.15 K, x1 = 0.5009	1213.97 ± 0.9	–
308.15 K, x1 = 0.5993	1357.19 ± 1.1	–
308.15 K, x1 = 0.6916	1506.3 ± 1.3	–
308.15 K, x1 = 0.7886	1681.76 ± 1.6	–
308.15 K, x1 = 0.8919	1893.55 ± 2.1	–
308.15 K, x1 = 1	2147.47 ± 2.8	–
308.44 K, x1 = 0.9061	–	953.47 ± 2.3
308.57 K, x1 = 0.6997	–	943.03 ± 2.2
308.58 K, x1 = 0.4002	–	972.63 ± 2.2
308.59 K, x1 = 0.6005	–	947.22 ± 2.2
308.59 K, x1 = 0.8004	–	944.46 ± 2.3
308.62 K, x1 = 0.1024	–	1047.4 ± 2.3
308.62 K, x1 = 0.2986	–	992.63 ± 2.2
308.65 K, x1 = 0.2	–	1018 ± 2.3
308.75 K, x1 = 1	–	966.56 ± 2.4
309.57 K, x1 = 0.4996	–	954.55 ± 2.2
313.15 K, x1 = 0.1018	756.39 ± 0.52	–
313.15 K, x1 = 0.2052	856.68 ± 0.42	–
313.15 K, x1 = 0.2931	950.37 ± 0.41	–
313.15 K, x1 = 0.3754	1045.35 ± 0.54	–
313.15 K, x1 = 0.3919	1065.57 ± 0.57	–
313.15 K, x1 = 0.5009	1207.14 ± 0.88	–
313.15 K, x1 = 0.5993	1349.51 ± 1	–
313.15 K, x1 = 0.6916	1498.2 ± 1.3	–
313.15 K, x1 = 0.7886	1673.14 ± 1.6	–
313.15 K, x1 = 0.8919	1884.12 ± 2.1	–
313.15 K, x1 = 1	2136.96 ± 2.8	–
314.45 K, x1 = 1	–	952 ± 2.3
314.52 K, x1 = 0.9061	–	937.35 ± 2.3
314.55 K, x1 = 0.6997	–	925.53 ± 2.2
314.56 K, x1 = 0.2	–	995.72 ± 2.2
314.58 K, x1 = 0.4002	–	952.25 ± 2.2
314.58 K, x1 = 0.8004	–	927.74 ± 2.2
314.59 K, x1 = 0.1024	–	1023.6 ± 2.3
314.59 K, x1 = 0.4996	–	938.54 ± 2.2
314.59 K, x1 = 0.6005	–	928.96 ± 2.2
314.61 K, x1 = 0.2986	–	971.18 ± 2.2
